Assay results taken from US20050113579A1, “Naphthalimide synthesis including amonafide synthesis and pharmaceutical preparations thereof” (ChemGenex Therapeutics, Inc., priority 2002, published 2005).
Structures can show the parent of a compound that is named as a salt.

Key:
[1] = Osmolality of the product; type: physicochemical
[2] = physchem; type: physicochemical
Experimental: Precipitation occurs as pH increases above 6.5. Solubility is about 1 mg/mL at pH 9 and 0.05 mg/mL at pH 11.

[3] = Solubility in water (general statements); type: physicochemical; settings: general statement
[4] = Titration with sodium hydroxide; type: physicochemical
Experimental: 561 mg amonafide dihydrochloride (1.57 mmol) was dissolved in 10 mL water to yield a clear red solution with pH at 1.2. With constant stirring, 1N NaOH solution was added. Solution remained clear until pH greater than 6.7. As shown in the titration curve below, 3.3 mmol NaOH was used to neutralize amonafide dihydrochloride in the solution. The calculated mol ratio of amonafide to NaOH was 1:2. [drawing]

[5] = free base; background statement; cited from earlier work

SMILES	osmolality [1]	pH above which precipitation occurs ([2]; as pH increases)	solubility ([2]; pH 1, water) [mg/mL]	solubility ([2]; pH 9, aqueous buffer) [mg/mL]	solubility ([2]; pH 11, aqueous buffer) [mg/mL]	solubility in water compared to monohydrochloride salt [3]	pH of solution ([4]; 561 mg (1.57 mmol) dissolved in 10 mL water, clear red solution)	pH until which solution remained clear ([4]; 1N NaOH added with constant stirring)	solubility in water [5]
CN(C)CCN1C(=O)c2cccc3cc(N)cc(c23)C1=O [amonafide dihydrochloride]	equivalent to 0.9% sodium chloride solution	above 6.5	> 250	~1	0.05	more soluble in water	1.2	greater than 6.7	–
CN(C)CCN1C(=O)c2cccc3cc(N)cc(c23)C1=O [Amonafide, 5-amino-2-[(dimethylamine)ethyl]-1H-benz[de-]isoquinoline-1,3-(2H)-dione]	–	–	–	–	–	–	–	–	very poorly soluble
